{"source": "patent US11986459B2", "about": "“Methods for the treatment of Mycobacterium infections” (University of South Florida, priority 2020, dated 2024)", "key": {"α-glucosidase": {"biological_target": "α-glucosidase", "conditions": "literature ref 12; read-out: α-glucosidase inhibition activity IC50; cited from earlier work"}, "[1]": {"tested_on": "replicating stage M. tuberculosis (Mtb)", "assay": "MIC against replicating Mtb", "format": "cell-based, Mycobacterium tuberculosis", "conditions": "for MIC: Mycobacterium tuberculosis"}, "zebrafish embryos": {"tested_on": "zebrafish embryos", "conditions": "reported in literature; cited from earlier work"}, "[2]": {"tested_on": "murine macrophage cell line J774", "assay": "Cytotoxicity assay with J774 macrophages", "conditions": "for IC50: Mus musculus"}, "M. abscessus (Mab)": {"tested_on": "M. abscessus (Mab)", "assay": "M. abscessus (Mab) inhibition", "format": "cell-based, Mycobacterium abscessus", "conditions": "Table 10; pure compounds"}, "E. co/i": {"tested_on": "E. co/i", "conditions": "reported in literature; cited from earlier work"}, "S. pyogenes": {"tested_on": "S. pyogenes", "conditions": "reported in literature; cited from earlier work"}, "S. aureus": {"tested_on": "S. aureus", "conditions": "reported in literature; cited from earlier work"}, "S. typhimurium": {"tested_on": "S. typhimurium", "conditions": "reported in literature; cited from earlier work"}, "C. albicans": {"tested_on": "C. albicans", "conditions": "reported in literature; cited from earlier work"}, "MRSA": {"tested_on": "MRSA", "conditions": "literature ref 20; cited from earlier work"}, "[3]": {"biological_target": "acetylcholinesterase (AchE) (Homo sapiens, UniProt P22303)", "sequence (P22303 32-614)": "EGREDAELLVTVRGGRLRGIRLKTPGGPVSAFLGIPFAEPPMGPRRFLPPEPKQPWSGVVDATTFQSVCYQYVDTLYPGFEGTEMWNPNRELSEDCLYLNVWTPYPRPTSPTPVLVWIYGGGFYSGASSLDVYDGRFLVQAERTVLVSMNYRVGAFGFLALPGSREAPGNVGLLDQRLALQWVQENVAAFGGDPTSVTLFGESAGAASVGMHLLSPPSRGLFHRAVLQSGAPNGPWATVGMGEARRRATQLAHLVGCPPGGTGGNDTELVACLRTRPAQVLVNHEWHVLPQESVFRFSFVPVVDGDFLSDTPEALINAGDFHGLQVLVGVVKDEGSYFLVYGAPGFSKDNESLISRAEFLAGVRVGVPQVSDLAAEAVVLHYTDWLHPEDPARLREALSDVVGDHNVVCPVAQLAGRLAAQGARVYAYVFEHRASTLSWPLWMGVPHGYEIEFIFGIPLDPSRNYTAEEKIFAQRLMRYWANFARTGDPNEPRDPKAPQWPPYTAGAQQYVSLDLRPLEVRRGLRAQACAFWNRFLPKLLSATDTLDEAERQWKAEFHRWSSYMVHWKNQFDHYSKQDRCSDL", "conditions": "literature ref 13; read-out: IC50 against acetylcholinesterase (AchE); cited from earlier work"}, "[4]": {"conditions": "Table 10, pure compounds, replicating Mtb, read-out: MIC (Mtb-rep)"}}, "note": "Like-named read-outs stand apart in the source and are kept apart here."}
{"compound": "C[C@@H]1CC(=O)CCCCCc2cc(O)cc(O)c2C(=O)O1", "note": "[(3R)-5-oxo-de-O-methyllasiodiplodin]", "values": [{"measurement": "IC50", "setting": "α-glucosidase", "result": 54.6, "unit": "µM"}]}
{"compound": "C[C@@H]1CCC[C@H](O)CCCc2cc(O)cc(O)c2C(=O)O1", "note": "[(3R,7R)-7-hydroxy-de-O-methyllasiodiplodin]", "values": [{"measurement": "IC50", "setting": "α-glucosidase", "result": 25.8, "unit": "µM"}]}
{"compound": "CC[C@H](C)/C=C(C)/C=C/C(=O)Cc1cc(O)c(C)c(O)c1C=O", "note": "[EtOAc-D, 2,4-dihyroxy-6-(5,7-dimethyl-2-oxo-trans-3-trans-5-nonadienyl)-3-methylbenzaldehyde]", "values": [{"measurement": "MIC", "setting": "[1]; read-out: MIC (Mtb-rep)", "result": "~50", "unit": "µg/mL"}, {"measurement": "effect on exposed zebrafish embryos", "setting": "zebrafish embryos", "result": "severely impaired heart morphology and curved trunk"}, {"measurement": "IC50", "setting": "[2]; J774, read-out: IC50 (J774)", "result": "~200", "unit": "µg/mL"}]}
{"compound": "COc1cc2c(c(O)c1C)COC2=O", "note": "[EtOAc-F-8-3, 4-hydroxy-6-methoxy-5-methyl-1(3H)-isobenzofuranone]", "values": [{"measurement": "MIC", "setting": "[1]; [4]", "result": 200, "unit": "µg/mL"}, {"measurement": "M. abscessus", "setting": "M. abscessus (Mab)", "result": 200, "unit": "µg/mL"}]}
{"compound": "C/C=C(/C(=O)O)N1C(=O)C=C(C)C1=O", "note": "[EtOAc-G-4, pencolide]", "values": [{"measurement": "MIC", "setting": "[1]; [4]", "result": 50, "unit": "µg/mL"}, {"measurement": "inhibition of E. co/i", "setting": "E. co/i", "result": "inhibition"}, {"measurement": "M. abscessus", "setting": "M. abscessus (Mab)", "result": 100, "unit": "µg/mL"}, {"measurement": "activity against S. pyogenes", "setting": "S. pyogenes", "result": "inhibition"}, {"measurement": "inhibition of S. aureus", "setting": "S. aureus", "result": "inhibition"}, {"measurement": "activity against S. typhimurium", "setting": "S. typhimurium", "result": "inhibition"}, {"measurement": "inhibition of C. albicans", "setting": "C. albicans", "result": "inhibition"}]}
{"compound": "COc1cc(CC(=O)CO)c(C=O)c(O)c1C", "note": "[EtOAc-M-6-3]", "values": [{"measurement": "MIC", "setting": "[1]; [4]", "result": 50, "unit": "µg/mL"}, {"measurement": "M. abscessus", "setting": "M. abscessus (Mab)", "result": 100, "unit": "µg/mL"}]}
{"compound": "CC[C@H](C)/C=C(C)/C=C/C1=CC2=C(Cl)C(=O)[C@](C)(OC(C)=O)C(=O)C2=CN1CCO", "note": "[EtOAc-O-7, Isochromophilone VI]", "values": [{"measurement": "selectivity index (SI)", "setting": "[1]; IC50 (J774) over MIC (Mtb)", "result": 10.78}, {"measurement": "MIC", "setting": "[1]; [4]", "result": 18.6, "unit": "µg/mL"}, {"measurement": "MIC", "setting": "[1]; text b208, FIG. 11, replicating Mtb, read-out: MIC", "result": 18, "unit": "µg/mL"}, {"measurement": "bioactivity against replicating Mtb (in words)", "setting": "[1]; conclusion b210", "result": "promising bioactivity"}, {"measurement": "activity against S. pyogenes", "setting": "S. pyogenes", "result": "bioactivity"}, {"measurement": "activity against S. typhimurium", "setting": "S. typhimurium", "result": "bioactivity"}, {"measurement": "IC50", "setting": "[2]; J774", "result": 200, "unit": "µg/mL"}, {"measurement": "IC50", "setting": "[2]; J774, read-out: IC50 (J774)", "result": "~200", "unit": "µg/mL"}, {"measurement": "cytotoxicity (in words)", "setting": "[2]; conclusion b210, J774", "result": "low cytotoxicity"}]}
{"compound": "CCC(C)/C=C(C)/C=C/C1=CC2=C(Cl)C(=O)C(C)(OC(C)=O)C(=O)C2=CN1CCCC(=O)O", "note": "(stereo not drawn) [Isochromophione IX, isochromophilone IX]", "values": [{"measurement": "MIC, inhibition against MRSA", "setting": "MRSA", "result": 50, "unit": "µg/mL"}]}
{"compound": "COc1ccc(-c2cc3c(c(=O)o2)C[C@]2(O)[C@@]4(C)CCC(=O)C(C)(C)[C@]4(O)CC[C@@]2(C)O3)cc1", "note": "[terreulactone C]", "values": [{"measurement": "IC50", "setting": "[3]", "result": 0.028, "unit": "µM"}]}
